# Assay results: US12721835B2, “Anticoccidial composition comprising violacein, and use thereof” (CJ CHEILJEDANG CORPORATION, priority 2020, dated 2026)
# Legend:
# Eimeria tenella [1] = experiment: Cell invasion inhibition of protozoa in MDBK cells (ITS-1 PCR); assay type: cell-based; details: read-out: Cell invasion inhibitory effect of protozoa (%)
# Experimental: In the present example, using MDBK cell line which is a representative animal cell known to cause Eimeria infection and propagation, the inhibition ability of intracellular protozoan invasion and intracellular protozoal propagation of the violacein was investigated.
# 100,000 MDBK cells (purchased from ATCC) were aliquoted in a 24-well plate, and then incubated at a temperature of 37° C. for 12 hours. The protozoan of Eimeria tenella was obtained similar to the method of Example 3 above. 200,000 protozoa per one well were added to wells in which cells were aliquoted, and each material (violacein and anticoccidial agents, salinomycin, diclazuril and gallic acid) was treated to the cells by concentration, and cultured at a temperature of 41° C. for 24 hours. A negative control group is a MDBK cell infected by protozoa of Eimeria tenella, and a positive control group means a group in which salinomycin, diclazuril or gallic acid solution was incubated with the Eimeria tenella protozoan. […] After removing the cells and protozoa inside the cells through pipetting, DNA was extracted from the cells, and PCR was performed using E. tenella ITS-1 (Internal transcribed spacer-1) gene-specific primers. The sequences of the used primers were described in Table 9 below.
# Ct values before/after washing for each material were compared and corrected with the ΔCt value of the negative control group to calculate the cell invasion inhibition rate (%) of the protozoa through treatment of each material, and the result was shown in FIG. 3 and Table 10 below.
# Eimeria tenella [2] = experiment: In vivo anticoccidial activity upon single inoculation (broilers, formulated feed); parameters: key to ACI: ACI out of 200 = survival% + RWG% − lesion×10 − oocyst index; details: Eimeria tenella infection; for Lesion score: appendix, scale 0-4, 8th day; for Oocyst excretion amount/g: feces day 6-8; for Lesion index: lesion score x 10; for ACI: out of 200 points; for Survival rate after challenge inoculation (%): up to 8th day; for RWG(%): vs non-infected negative control
# Experimental: An in vivo anticoccidial efficacy evaluation test was performed in an animal experiment facility in Gyeongsangnam-do, South Korea. One-day-old female Ross broilers were individually weighed and randomly divided into groups to use in an experiment. Matters and conditions for experimental design were described in Table 2.
# A breeding farm was managed according to the Korean poultry breeding management guidelines. Cages and the breeding farm were cleaned and disinfected before starting the test. The temperature of […] and the humidity of 40 to 50% of the breeding farm were maintained, and it was continuously monitored.
# For the feed, Korea Feed Al-choi product was used, and each material (diclazuril (Yuhan Corporation YUHAN DICLA product), salinomycin (Cheil Bio Cheilsalino-60 product), violacein (CJ Cheiljedang)) was added to the feed, respectively, at a concentration described in Table 3 below to be self-mixed. Antibiotics and supplements were not used in general feed and mixed feed, and no anticoccidial agent other than each material was added. Broilers were fed ad libitum throughout the experiment period. After putting 15 1-day-age broilers in cages randomly placed for each of the control group or test group and breeding, general feed (Al-choi product) was fed for 7 days, and then the mixed feed prepared above was ingested by dividing by control group or test group. The non-infected negative control group used 1cage, and the infected negative control group and experimental group used 2cage to progress the experiment.
# The feed formulation administered to the control group (negative control group or positive control group) and test group and whether coccidiosis was induced by Eimeria tenella were described in Table 3 below.
# 14-day-old broilers were orally inoculated with 10,000 oocysts (90% sporulated Eimeria tenella oocysts) per individual to induce coccidiosis.
# The anticoccidial efficacy by test group designed in Example 1-2 above was shown as an anticoccidial index (ACI), and the anticoccidial index was calculated by Equation 2 below. The ACI score is out of 200 points, and the higher the ACI score, the more excellent the anticoccidial ability, and when it is 120 points or more to less than 140 points, it is determined that it is effective as an anticoccidial material, and when it is 140 points or more to less than 160 points, it is determined that it is excellent as an anticoccidial material, and when it is 160 points or more, it is determined that the anticoccidial effect is very excellent (Luis Miguel De Pablos et al., Anticoccidial activity of maslinic acid against infection with Eimeria tenella in chickens, Parasitol Res, 2010). Anticoccidial index (ACI)=(survival rate after challenge inoculation(%))+(daily weight gain compared to negative control group (RWG,%))−(lesion score×10)−(fecal oocyst excretion amount index) (Equation 2) • 1) Survival rate: the number of dead individuals was recorded daily, and post mortem autopsy was performed to determine a cause of mortality, and the number of individuals who died due to causes other than coccidiosis was excluded. The survival rate (%) up to the 8th day after challenge inoculation was used for anticoccidial index calculation. The measured survival rate was described in Table 4 below. • 2) Daily weight gain: body weight was measured for each cage before challenge inoculation with a protozoan into an individual and at the 7th day after challenge inoculation, and the difference was divided by the number of days to calculate the daily weight gain (ADG, g/d). ‘Daily weight gain compared to the negative control group (RWG, %)’ which was calculated by dividing the daily weight gain (ADG, average daily gain; g/d) of each experimental group by the weight gain (ADG, g/d) of the non-infected negative control group and multiplying by 100 was used for anticoccidial index calculation. […]
compound,measurement,setting,value
"CC[C@@H](C(=O)[C@@H](C)[C@@H](O)[C@H](C)[C@@H]1O[C@@H]([C@@H](CC)C(=O)O)CC[C@@H]1C)[C@H]1O[C@]2(C=C[C@@H](O)[C@]3(CC[C@@](C)([C@H]4CC[C@](O)(CC)[C@H](C)O4)O3)O2)[C@H](C)C[C@@H]1C [Salinomycin, salinomycin, reference compound]",inhibition at 5 ppm,"Eimeria tenella [1]; MDBK, 24 h",50.1%
same,inhibition at 10 ppm,"Eimeria tenella [1]; MDBK, 24 h",56.4%
same,ADG(g/d) after challenge inoculation,Eimeria tenella [2]; feed 60 ppm,56 g/day
same,Oocyst index,Eimeria tenella [2]; feed 60 ppm,10
same,Lesion score,Eimeria tenella [2]; feed 60 ppm,2.6
same,Oocyst excretion amount/g,Eimeria tenella [2]; feed 60 ppm,1.3e+08 g⁻¹
same,Lesion index,Eimeria tenella [2]; feed 60 ppm,26
same,ACI,Eimeria tenella [2]; feed 60 ppm,139
same,Survival rate after challenge inoculation (%),Eimeria tenella [2]; feed 60 ppm,87%
same,RWG(%),Eimeria tenella [2]; feed 60 ppm,88%
"O=C1N=c2ccccc2=C1c1cc(-c2c[nH]c3ccc(O)cc23)[nH]c1O [Violacein, 3-(2-(5-Hydroxyindol-3-yl)-5-oxo-2-pyrrolin-4-ylidene)-2-indolinone]",inhibition at 0.5 ppm,"Eimeria tenella [1]; MDBK cells, 0.5 ppm, 41° C. 24 hours",59.5%
same,inhibition at 1 ppm,"Eimeria tenella [1]; MDBK cells, 1 ppm, 41° C. 24 hours",78.6%
same,ADG(g/d) after challenge inoculation,Eimeria tenella [2]; feed 10 ppm,60 g/day
same,Oocyst index,Eimeria tenella [2]; feed 10 ppm,10
same,Lesion score,Eimeria tenella [2]; feed 10 ppm,2.1
same,Oocyst excretion amount/g,Eimeria tenella [2]; feed 10 ppm,1.3e+08 g⁻¹
same,Lesion index,Eimeria tenella [2]; feed 10 ppm,21
same,ACI,Eimeria tenella [2]; feed 10 ppm,162
same,Survival rate after challenge inoculation (%),Eimeria tenella [2]; feed 10 ppm,100%
same,RWG(%),Eimeria tenella [2]; feed 10 ppm,94%
same,ADG(g/d) after challenge inoculation,Eimeria tenella [2]; feed 40 ppm,58 g/day
same,Oocyst index,Eimeria tenella [2]; feed 40 ppm,10
same,Lesion score,Eimeria tenella [2]; feed 40 ppm,2.7
same,Oocyst excretion amount/g,Eimeria tenella [2]; feed 40 ppm,9e+07 g⁻¹
same,Lesion index,Eimeria tenella [2]; feed 40 ppm,27
same,ACI,Eimeria tenella [2]; feed 40 ppm,145
same,Survival rate after challenge inoculation (%),Eimeria tenella [2]; feed 40 ppm,90%
same,RWG(%),Eimeria tenella [2]; feed 40 ppm,91%
